The record followed here is US20060019994A1, “I-sulphonlyl piperidine derivatives” (priority 2002, published 2006).

The test has as its target T1, proTNF-α convertase enzyme (TACE) (Homo sapiens, UniProt P78536).
T1 construct: a partially purified, isolated enzyme assay, the enzyme being obtained from the membranes of THP-1; endogenous in cells; host or cells: THP-1 cell membranes, partially purified
The experiment in a line: Isolated enzyme assay, proTNF-α convertase (TACE), partially purified enzyme from membranes of THP-1, fluorescent peptide substrate. Particulars: 26° C. for 4 hours, read-out: concentration causing 50% inhibition of TACE. The test is classed as biochemical. On the procedure:
Recombinant human proMMP13 may be expressed and purified as described by Knauper et al. [V. Knauper et al., (1996) The Biochemical Journal 271:1544-1550 (1996)]. […] Activity is determined by measuring the fluorescence at λex 328 nm and λem 393 nm. Percent inhibition is calculated as follows: % Inhibition is equal to the [Fluorescenceplus inhibitor-Fluorescencebackground] divided by the [Fluorescenceminus inhibitor-Fluorescencebackground].
The ability of the compounds to inhibit proTNF-α convertase enzyme (TACE) may be assessed using a partially purified, isolated enzyme assay, the enzyme being obtained from the membranes of THP-1 as described by K. M. Mohler et al., (1994) Nature 370:218-220. The purified enzyme activity and inhibition thereof is determined by incubating the partially purified enzyme in the presence or absence of test compounds using the substrate 4′,5′-Dimethoxy-fluoresceinyl Ser.Pro.Leu.Ala.Gln.Ala.Val.Arg.Ser.Ser.Ser.Arg.Cys(4-(3-succinimid-1-yl)-fluorescein)-NH2 in assay buffer (50 mM Tris HCl, pH 7.4 containing 0.1% (w/v) Triton X-100 and 2 mM CaCl2), at 26° C. for 4 hours. The amount of inhibition is determined as for MMP13 except λex 485 nm and λem 538 nm were used. […]

Each structure is given as a SMILES string.

T1 sequence (P78536 215-824): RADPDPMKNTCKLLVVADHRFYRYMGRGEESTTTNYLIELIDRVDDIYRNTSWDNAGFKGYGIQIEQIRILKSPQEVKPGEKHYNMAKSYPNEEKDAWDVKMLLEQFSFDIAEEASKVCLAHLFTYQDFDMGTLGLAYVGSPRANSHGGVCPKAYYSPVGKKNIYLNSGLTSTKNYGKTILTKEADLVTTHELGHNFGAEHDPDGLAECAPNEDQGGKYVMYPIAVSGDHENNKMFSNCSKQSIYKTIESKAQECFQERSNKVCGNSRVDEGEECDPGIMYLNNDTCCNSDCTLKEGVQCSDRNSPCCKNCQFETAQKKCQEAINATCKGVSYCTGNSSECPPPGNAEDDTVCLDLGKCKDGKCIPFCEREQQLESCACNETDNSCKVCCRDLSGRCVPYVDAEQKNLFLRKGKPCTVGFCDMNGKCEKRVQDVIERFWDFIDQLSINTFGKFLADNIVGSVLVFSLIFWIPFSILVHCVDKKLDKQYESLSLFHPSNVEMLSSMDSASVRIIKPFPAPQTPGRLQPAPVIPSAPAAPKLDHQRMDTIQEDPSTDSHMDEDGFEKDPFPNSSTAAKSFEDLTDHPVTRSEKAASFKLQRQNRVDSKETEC

Take `Cc1cc(COC2CCN(S(=O)(=O)CCC3NC(=O)NC3=O)CC2)c2ccccc2n1` (stereo not shown) [Example 3, 5-[2-({4-[(2-Methylquinolin-4-yl)methoxy]piperidin-1-yl}sulphonyl)ethyl]imidazolidine-2,4-dione]: the IC50 worked out at 630 nM.
